# Several values for one entry are separate records, joined by “and”; a condition that tells them apart may be missing. Equal values may be shown once. Entries after “also recorded” stand apart in the source; their conditions may differ.
# Experiments:
# [1] = molecular target: T1, WT hERG (Homo sapiens, UniProt Q12809); assay: Whole-cell patch-clamp recording of IhERG, WT hERG in HEK293 cells at 37 °C; format: cell-based
# T1 construct: expressed in transfected cells
# Source text: (§1) A HEK293 cell line stably expressing WT hERG channels was kindly donated by Prof. Craig January ([51]). The pore helix (T623A and S624A) and S6 helix (F656A) alanine mutants, attenuated-inactivation mutants (N588K and S620T), and S5 mutant F557L were all generated and used as described previously ([3], [18], [41], [52]). The HEK293 cell line stably expressing the hERG S6 helix mutant Y652A was used in this study as described previously ([52]).
# (§2) HEK293 cells stably or transiently expressing hERG constructs were maintained as described previously ([18], [19], [52]). Cells were plated in 40-mm Petri dishes at least 48 h before transfection and incubated at 37 °C with 5% CO2. Cells were transfected either with Lipofectamine^TM 2000 (Invitrogen) or Lipofectamine LTX (Invitrogen) following the manufacturer's instructions. The amount of hERG construct DNA that was transfected varied between 0.1 and 1.0 μg depending on the level of functional expression. 0.15 μg of CD8 was cotransfected as a transfection marker, and successfully transfected cells were identified using Dynabeads® (Invitrogen). Cells were plated on sterilized glass shards in 40-mm Petri dishes and incubated at 37 °C (5% CO2) at least 24 h before electrophysiological recording; this was to allow time for cell recovery and hERG construct expression.
# For IhERG recordings, glass shards containing plated cells were placed in a recording chamber mounted on an inverted microscope (Nikon Diaphot). The cells were superfused continuously with Tyrode's solution containing 140 mM NaCl, 4 mM KCl, 2.5 mM CaCl2, 1 mM MgCl2, 10 mM glucose, 5 mM HEPES (titrated to pH 7.4 with NaOH). As described previously ([18], [19]), a modified “high-K^+” version of this solution (containing 94 mM KCl and 50 mM NaCl) was used to obtain recordable currents from comparatively poorly expressed hERG mutants (T623A and F656A). Patch pipettes (Schott number 8250 glass, A-M Systems Inc.) were pulled (Narishige, PP 830) and polished (Narishige, MF 83) to final resistance values between 2 and 4 megaohms. The patch pipettes were filled with intracellular solutio, containing 130 mM KCl, 1 mM MgCl2, 5 mM EGTA, 5 mM MgATP, and 10 mM HEPES (titrated to pH 7.2 with KOH). Pipette resistance compensation was between 70 and 80%. Cavalli-2 ([30]), which was synthesized by Ascent Scientific (Abcam Ltd.), was dissolved in DMSO to produce 100 μM, 1 mM, and 10 mM stock solutions. Stock solutions were diluted either in standard or high-K^+ Tyrode's solution as appropriate to obtain final concentrations stated under “Results.” Solutions were preheated to 37 ± 1 °C and applied to single cells using a homemade, multibarreled superfusion system, enabling rapid superfusate exchange (<1 s) ([53]). Thus, measurements of IhERG were made at 37 ± 1 °C as described previously ([18], [19], [52], [54], [55]).
# All IhERG recordings were made using an Axopatch 200B amplifier (Axon Instruments, now Molecular Devices) and a CV203BU head stage. Data were acquired using a Digidata 1320 interface (Axon Instruments, now Molecular Devices). Data digitization rates were between 10 and 25 kHz during all voltage protocols, and an appropriate bandwidth between 2 and 10 kHz was set on the amplifier. For WT hERG and most of the mutant channels studied, activating voltage commands to +20 mV were used with tail currents observed at either […] (for most mutants) or −120 mV (for T623A and F656A) ([18][–][20], [33]). The level of block of WT and mutant IhERG by Cavalli-2 was attained by repetitive protocol application for 5 min, and fractional inhibition of IhERG tails was measured. […]
# [2] = molecular target: T2, N588K hERG (Homo sapiens, UniProt Q12809, N588K); assay: Whole-cell patch-clamp recording of IhERG, attenuated-inactivation mutant N588K; format: cell-based
# T2 construct: expressed in transfected cells; host or cells: HEK293
# Source text: as §1, §2
# (§3) For IhERG recordings, glass shards containing plated cells were placed in a recording chamber mounted on an inverted microscope (Nikon Diaphot). The cells were superfused continuously with Tyrode's solution containing 140 mM NaCl, 4 mM KCl, 2.5 mM CaCl2, 1 mM MgCl2, 10 mM glucose, 5 mM HEPES (titrated to pH 7.4 with NaOH). As described previously ([18], [19]), a modified “high-K^+” version of this solution (containing 94 mM KCl and 50 mM NaCl) was used to obtain recordable currents from comparatively poorly expressed hERG mutants (T623A and F656A). Patch pipettes (Schott number 8250 glass, A-M Systems Inc.) were pulled (Narishige, PP 830) and polished (Narishige, MF 83) to final resistance values between 2 and 4 megaohms. […]
# [3] = molecular target: T3, S620T hERG (Homo sapiens, UniProt Q12809, S620T); assay: Whole-cell patch-clamp recording of IhERG, attenuated-inactivation mutant S620T; format: cell-based
# T3 construct: expressed in transfected cells; host or cells: HEK293
# Source text: as §1
# as §2, with “construct expression. […]” for “construct expression.”
# [4] = molecular target: T4, T623A hERG (Homo sapiens, UniProt Q12809, T623A); assay: Whole-cell patch-clamp recording of IhERG, pore helix mutant T623A; format: cell-based
# T4 construct: expressed in transfected cells; host or cells: HEK293
# T4 sequence (Q12809 whole entry T623A): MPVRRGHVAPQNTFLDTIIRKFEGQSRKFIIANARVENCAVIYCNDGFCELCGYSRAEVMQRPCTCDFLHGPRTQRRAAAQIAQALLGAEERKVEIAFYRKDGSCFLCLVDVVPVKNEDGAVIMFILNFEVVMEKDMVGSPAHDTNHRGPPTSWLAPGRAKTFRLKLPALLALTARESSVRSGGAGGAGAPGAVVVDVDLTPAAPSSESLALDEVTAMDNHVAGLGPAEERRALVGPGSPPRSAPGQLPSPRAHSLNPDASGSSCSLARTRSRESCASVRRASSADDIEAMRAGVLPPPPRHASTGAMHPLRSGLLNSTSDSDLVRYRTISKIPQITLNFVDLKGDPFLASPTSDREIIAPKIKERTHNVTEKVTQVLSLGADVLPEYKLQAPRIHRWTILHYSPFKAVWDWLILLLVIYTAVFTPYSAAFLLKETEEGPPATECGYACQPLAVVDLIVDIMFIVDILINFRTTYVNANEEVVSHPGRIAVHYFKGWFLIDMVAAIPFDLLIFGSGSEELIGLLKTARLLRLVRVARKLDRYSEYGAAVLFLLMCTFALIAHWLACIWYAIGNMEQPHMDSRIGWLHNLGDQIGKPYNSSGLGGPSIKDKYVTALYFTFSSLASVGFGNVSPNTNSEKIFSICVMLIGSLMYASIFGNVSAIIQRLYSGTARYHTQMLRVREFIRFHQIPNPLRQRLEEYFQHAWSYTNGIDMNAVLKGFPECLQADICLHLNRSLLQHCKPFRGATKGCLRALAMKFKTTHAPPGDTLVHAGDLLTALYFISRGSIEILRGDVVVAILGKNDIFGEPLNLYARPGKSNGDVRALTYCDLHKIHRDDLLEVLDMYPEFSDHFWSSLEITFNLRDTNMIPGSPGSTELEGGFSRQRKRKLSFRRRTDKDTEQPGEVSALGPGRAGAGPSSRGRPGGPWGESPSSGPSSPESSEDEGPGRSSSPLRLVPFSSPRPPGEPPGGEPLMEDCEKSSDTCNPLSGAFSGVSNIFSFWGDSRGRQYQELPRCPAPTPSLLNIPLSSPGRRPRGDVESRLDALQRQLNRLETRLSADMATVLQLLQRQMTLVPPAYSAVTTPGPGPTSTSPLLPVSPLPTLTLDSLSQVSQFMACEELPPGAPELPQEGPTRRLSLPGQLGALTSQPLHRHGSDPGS
# Source text: as §1
# as §2, with “construct expression. […]” for “construct expression.”
# [5] = molecular target: T5, S624A hERG (Homo sapiens, UniProt Q12809, S624A); assay: Whole-cell patch-clamp recording of IhERG, pore helix mutant S624A; format: cell-based
# T5 construct: expressed in transfected cells; host or cells: HEK293
# T5 sequence (Q12809 whole entry S624A): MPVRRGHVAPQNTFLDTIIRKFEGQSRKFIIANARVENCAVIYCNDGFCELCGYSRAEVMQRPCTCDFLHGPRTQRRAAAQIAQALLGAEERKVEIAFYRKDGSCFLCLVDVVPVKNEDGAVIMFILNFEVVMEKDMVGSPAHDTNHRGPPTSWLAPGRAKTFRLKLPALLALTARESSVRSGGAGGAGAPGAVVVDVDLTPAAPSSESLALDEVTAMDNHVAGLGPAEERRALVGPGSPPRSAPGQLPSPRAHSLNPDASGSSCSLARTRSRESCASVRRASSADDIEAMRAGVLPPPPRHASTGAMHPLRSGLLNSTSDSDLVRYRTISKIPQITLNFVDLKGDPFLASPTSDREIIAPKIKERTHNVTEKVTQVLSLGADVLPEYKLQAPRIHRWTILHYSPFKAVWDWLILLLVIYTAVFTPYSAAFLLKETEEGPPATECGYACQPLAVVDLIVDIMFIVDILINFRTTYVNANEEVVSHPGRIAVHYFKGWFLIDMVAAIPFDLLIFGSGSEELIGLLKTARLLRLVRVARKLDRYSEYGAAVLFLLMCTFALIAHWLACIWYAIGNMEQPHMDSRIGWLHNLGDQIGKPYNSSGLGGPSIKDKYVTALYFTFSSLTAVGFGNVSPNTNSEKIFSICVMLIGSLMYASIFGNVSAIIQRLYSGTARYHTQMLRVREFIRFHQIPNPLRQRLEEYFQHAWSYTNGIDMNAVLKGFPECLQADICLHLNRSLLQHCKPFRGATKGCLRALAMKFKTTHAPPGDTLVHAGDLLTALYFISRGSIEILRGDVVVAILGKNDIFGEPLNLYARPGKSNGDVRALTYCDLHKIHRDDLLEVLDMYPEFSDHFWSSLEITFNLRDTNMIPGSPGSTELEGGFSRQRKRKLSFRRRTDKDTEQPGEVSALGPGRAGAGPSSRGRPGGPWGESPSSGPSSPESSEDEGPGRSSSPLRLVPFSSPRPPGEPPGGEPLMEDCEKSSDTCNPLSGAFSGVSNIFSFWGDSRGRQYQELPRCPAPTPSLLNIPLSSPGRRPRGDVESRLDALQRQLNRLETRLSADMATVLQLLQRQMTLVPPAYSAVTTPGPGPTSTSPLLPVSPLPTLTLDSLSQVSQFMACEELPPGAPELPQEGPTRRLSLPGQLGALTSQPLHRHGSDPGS
# Source text: as §1
# as §2, with “construct expression. […]” for “construct expression.”
# [6] = molecular target: T6, Y652A hERG (Homo sapiens, UniProt Q12809, Y652A); assay: Whole-cell patch-clamp recording of IhERG, S6 helix mutant Y652A; format: cell-based
# T6 construct: expressed in transfected cells
# Source text: as §1, §2, §3
# [7] = molecular target: T7, F656A hERG (Homo sapiens, UniProt Q12809, F656A); assay: Whole-cell patch-clamp recording of IhERG, S6 helix mutant F656A; format: cell-based
# T7 construct: expressed in transfected cells; host or cells: HEK293
# Source text: as §1, §2, §3
# [8] = molecular target: T8, F557L hERG (Homo sapiens, UniProt Q12809, F557L); assay: Whole-cell patch-clamp recording of IhERG, S5 mutant F557L; format: cell-based
# T8 construct: expressed in transfected cells; host or cells: HEK293
# T8 sequence (Q12809 whole entry F557L): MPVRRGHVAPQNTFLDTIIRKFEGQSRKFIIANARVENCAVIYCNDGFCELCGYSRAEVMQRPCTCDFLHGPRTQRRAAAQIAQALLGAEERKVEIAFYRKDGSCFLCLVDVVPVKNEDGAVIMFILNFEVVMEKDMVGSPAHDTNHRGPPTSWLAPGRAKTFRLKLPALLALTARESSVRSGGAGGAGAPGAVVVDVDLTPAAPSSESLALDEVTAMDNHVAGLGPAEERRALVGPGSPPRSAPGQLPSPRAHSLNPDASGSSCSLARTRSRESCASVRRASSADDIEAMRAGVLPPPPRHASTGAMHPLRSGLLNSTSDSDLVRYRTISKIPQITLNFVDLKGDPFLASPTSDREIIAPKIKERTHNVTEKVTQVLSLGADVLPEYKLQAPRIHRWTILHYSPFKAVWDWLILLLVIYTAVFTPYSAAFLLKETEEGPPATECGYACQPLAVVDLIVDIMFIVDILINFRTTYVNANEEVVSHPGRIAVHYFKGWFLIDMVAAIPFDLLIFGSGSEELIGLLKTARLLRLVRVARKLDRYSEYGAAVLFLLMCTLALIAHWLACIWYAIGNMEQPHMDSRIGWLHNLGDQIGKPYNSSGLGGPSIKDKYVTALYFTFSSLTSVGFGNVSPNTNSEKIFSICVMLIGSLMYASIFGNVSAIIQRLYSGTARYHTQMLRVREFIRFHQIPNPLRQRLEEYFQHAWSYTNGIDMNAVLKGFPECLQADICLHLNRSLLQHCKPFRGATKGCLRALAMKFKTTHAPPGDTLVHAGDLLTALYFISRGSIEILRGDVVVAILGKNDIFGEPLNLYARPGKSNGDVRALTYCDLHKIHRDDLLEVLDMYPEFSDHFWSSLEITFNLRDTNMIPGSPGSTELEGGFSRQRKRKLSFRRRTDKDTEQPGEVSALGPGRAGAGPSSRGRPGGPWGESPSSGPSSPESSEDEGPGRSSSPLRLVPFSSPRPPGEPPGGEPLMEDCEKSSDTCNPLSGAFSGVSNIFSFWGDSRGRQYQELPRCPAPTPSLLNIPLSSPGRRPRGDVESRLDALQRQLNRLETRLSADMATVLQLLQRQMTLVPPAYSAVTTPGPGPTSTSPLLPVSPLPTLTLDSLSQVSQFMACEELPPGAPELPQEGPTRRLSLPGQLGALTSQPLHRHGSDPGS
# Source text: as §1, §2
# The F557L hERG mutation was generated using the Quik Change® site-directed mutagenesis kit (Stratagene, La Jolla, CA). In brief, a pair of complementary oligonucleotide primers containing the mutation (forward primer sequence, 5′[…]-3′; reverse primer sequence, 5′[…]-3′; synthesized by Sigma-Genosys, Haverhill, UK) was used in a PCR (95 °C for 1 min, 60 °C for 1 min, and 68 °C for 16 min for 18 cycles) by using hERG in a modified pcDNA3.0 vector as a DNA template. A DpnI digest of the PCR mixture was then performed for 1 h at 37 °C. Competent DH5α Escherichia coli (Invitrogen) were transformed using standard procedures. The mutation was confirmed by sequencing of the entire ORF (Eurofins MWG Operon, Ebersberg, Germany). […]
# [9] = molecular target: T1, WT hERG; assay: Whole-cell patch-clamp recording of IhERG, WT hERG in HEK293 cells at 37 °C; format: cell-based; remark: listed apart in the source
# [10] = tested on: hERG; parameters: method as in earlier work; conditions: HEK cells at room temperature; ref 30 (Cavalli et al.); cited from earlier work
# T1 sequence (Q12809 whole entry): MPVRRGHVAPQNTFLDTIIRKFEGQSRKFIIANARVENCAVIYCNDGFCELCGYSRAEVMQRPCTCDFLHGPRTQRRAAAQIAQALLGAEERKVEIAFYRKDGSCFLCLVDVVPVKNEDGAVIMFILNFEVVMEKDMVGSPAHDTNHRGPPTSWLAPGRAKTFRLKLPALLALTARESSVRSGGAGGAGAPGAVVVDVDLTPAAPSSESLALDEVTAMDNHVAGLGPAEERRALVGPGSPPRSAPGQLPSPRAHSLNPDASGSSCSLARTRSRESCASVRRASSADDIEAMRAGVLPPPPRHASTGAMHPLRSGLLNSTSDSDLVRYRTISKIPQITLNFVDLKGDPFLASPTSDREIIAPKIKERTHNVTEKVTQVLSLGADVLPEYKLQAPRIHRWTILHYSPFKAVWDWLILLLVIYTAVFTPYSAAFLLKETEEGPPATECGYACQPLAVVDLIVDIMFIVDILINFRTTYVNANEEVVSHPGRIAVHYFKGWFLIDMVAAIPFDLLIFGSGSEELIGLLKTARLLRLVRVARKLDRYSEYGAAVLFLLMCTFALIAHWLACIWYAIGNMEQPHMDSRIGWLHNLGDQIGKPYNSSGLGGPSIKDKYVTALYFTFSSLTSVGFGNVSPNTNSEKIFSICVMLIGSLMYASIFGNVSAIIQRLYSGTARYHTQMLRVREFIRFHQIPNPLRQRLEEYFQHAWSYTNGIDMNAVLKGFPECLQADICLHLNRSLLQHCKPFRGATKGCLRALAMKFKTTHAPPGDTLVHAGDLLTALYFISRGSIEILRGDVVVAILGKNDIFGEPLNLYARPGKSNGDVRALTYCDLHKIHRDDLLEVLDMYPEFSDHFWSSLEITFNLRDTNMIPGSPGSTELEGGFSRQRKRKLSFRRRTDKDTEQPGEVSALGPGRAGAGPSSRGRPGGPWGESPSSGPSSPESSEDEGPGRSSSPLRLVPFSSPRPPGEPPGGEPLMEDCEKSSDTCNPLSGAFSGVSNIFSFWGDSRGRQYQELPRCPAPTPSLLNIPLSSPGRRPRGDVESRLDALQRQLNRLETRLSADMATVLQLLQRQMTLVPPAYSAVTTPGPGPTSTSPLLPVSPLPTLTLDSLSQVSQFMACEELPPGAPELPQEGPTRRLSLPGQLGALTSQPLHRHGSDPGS
smiles,measurement,setting,value
c1ccc(CCCNCCC(c2ccccc2)c2ccccc2)cc1 [Cavalli-2],k (slope) of IhERG activation in the presence of compound,[1]; 30 nM,5.0 ± 1.5 and 5.03 ± 1.50 and 4.8 ± 1.1
same,k of IhERG inactivation in the presence of compound,[1]; 30 nM,19.9 ± 1.1 and 20.1 ± 1.3
same,ΔV0.5 of activation,[1]; 30 nM vs control,-4.68 mV
same,inactivation τ in the presence of compound,"[1]; 30 nM, +40 mV after 2-ms step to −120 mV, control 1.4 ± 0.2 ms",1.6 ± 0.5 ms
same,voltage dependence of fractional inhibition of WT IhERG,"[1]; 30 nM, test depolarizations −30 to +60 mV",voltage-dependent over the tested range
same,fractional inhibition of IhERG during +40-mV phase vs 0-mV phases,"[1]; 30 nM, three-step protocol 0/+40/0 mV",significantly reduced
same,δ value (Woodhull analysis),[1]; KD at +60 mV vs 0 mV,0.2
same,IC50 at 5 min,"[1]; human, HEK293 cells stably expressing WT hERG, pH 7.4, WT-2, inward IhERG tails, voltage step −120 mV, 94 mM K+",17.5 nM
same,recovery at 30 nM,"[1]; human, HEK293 cells stably expressing WT hERG, pH 7.4, washout after 30 nM, five cells, read-out: recovery on washout, of control amplitude",59.5 ± 4.1%
same,Potency reduction compared with its WT-control (fold WT IC50),[2]; N588K vs WT-1,15 fold and 15.3 fold
same,"inhibition at 5 min, 0.3 µM","[2]; human, HEK293 cells expressing N588K hERG, pH 7.4, 300 nM",< 50%
same,IC50 at 5 min,"[2]; human, HEK293 cells expressing N588K hERG, pH 7.4, N588K, −40 mV, 4 mM K+",544 nM
same,Potency reduction compared with its WT-control (fold WT IC50),[3]; S620T vs WT-1,54 fold and 53.8 fold
same,IC50 at 5 min,"[3]; human, HEK293 cells expressing S620T hERG, pH 7.4, S620T, −40 mV, 4 mM K+",1920 nM
same,Potency reduction compared with its WT-control (fold WT IC50),[4]; T623A vs WT-2,16 fold and 16.1 fold
same,IC50 at 5 min,"[4]; human, HEK293 cells expressing T623A hERG, pH 7.4, T623A, −120 mV, 94 mM K+",281 nM
same,Potency reduction compared with its WT-control (fold WT IC50),[5]; S624A vs WT-1,7 fold and 7.4 fold
same,IC50 at 5 min,"[5]; human, HEK293 cells expressing S624A hERG, pH 7.4, S624A, −40 mV, 4 mM K+",262 nM
same,voltage dependence of Y652A IhERG tail inhibition,"[6]; 300 nM, −20 to +40 mV",eliminated voltage dependence of inhibition; also recorded: no significant voltage dependence
same,Potency reduction compared with its WT-control (fold WT IC50),[6]; Y652A vs WT-1,17 fold and 16.7 fold
same,IC50 at 5 min,"[6]; human, HEK293 cells stably expressing Y652A hERG, pH 7.4, Y652A, −40 mV, 4 mM K+",594 nM
same,reduction of F656A IhERG,"[7]; 1 μM, −120 mV, high K+",~40%
same,Potency reduction compared with its WT-control (fold WT IC50),[7]; F656A vs WT-2,75 fold and 75.1 fold
same,IC50 at 5 min,"[7]; human, HEK293 cells expressing F656A hERG, pH 7.4, F656A, −120 mV, 94 mM K+",1320 nM
same,voltage dependence of F557L IhERG tail inhibition,"[8]; 300 nM, −20 to +40 mV",eliminated voltage dependence of inhibition; also recorded: no significant voltage dependence; also recorded: nearly abolished
same,Potency reduction compared with its WT-control (fold WT IC50),[8]; F557L vs WT-1,10 fold and 9.5 fold
same,IC50 at 5 min,"[8]; human, HEK293 cells expressing F557L hERG, pH 7.4, F557L, −40 mV, 4 mM K+",339 nM
same,IhERG tail inhibition,"[9]; 30 nM, standard protocol, tails at −40 mV, 4 mM K+",50.2 ± 2.0%
same,change in t½ of IhERG deactivation,"[9]; 30 nM, tails at −40 mV",No significant change
same,IC50,"[9]; WT-1, IhERG tails, voltage step −40 mV, 4 mM K+, HEK293, 37 °C",35.6 nM
same,"inhibition at 5 min, 0.03 µM","[9]; human, HEK293 cells stably expressing WT hERG, pH 7.4, 30 nM, AP voltage clamp, read-out: inhibition of peak IhERG during ventricular action potential waveform",42.3 ± 6.7%
same,"inhibition at 5 min, 30 nM","[9]; human, HEK293 cells stably expressing WT hERG, pH 7.4, 30 nM, standard protocol, tails at −40 mV, 4 mM K+, read-out: IhERG tail inhibition",~50%
same,IC50 at 5 min,"[9]; human, HEK293 cells stably expressing WT hERG, pH 7.4, WT-1, IhERG tails, voltage step −40 mV, 4 mM K+, HEK293, 37 °C",36 nM
same,IC50,[10],17 nM
